Test results as given in ChEMBL document CHEMBL1201862, “PubChem BioAssay data set” (2004).
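Tested at 5 concentrations; 48 h exposure; 96-well plates; endpoints linearly interpolated, else capped at highest concentration. GI50 marks 50% less growth.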 Active and inactive are the calls of the source. Rule as the data show it: active = GI50 up to about 1.1 µM and inactive = higher.

Experiments:
Assay in all cases: NCI anticancer screen, dose series, 48 h
[1] = system: Hs-578T
[2] = system: PC-3
[3] = system: DU-145
[4] = system: HL-60
[5] = system: K562
[6] = system: T47D
[7] = system: CCRF-CEM
[8] = system: Malme-3M
[9] = system: NCI/ADR-RES
[10] = system: MCF7
[11] = system: CAKI-1
[12] = system: MDA-MB-231
[13] = system: MDA-N
[14] = system: HCC 2998
[15] = system: 786-0
[16] = system: MOLT-4
[17] = system: UACC-62
[18] = system: DMS-273
[19] = system: SNB-78
[20] = system: KM-20L2

Compound | GI50 [1] | GI50 [2] | GI50 [3] | GI50 [4] | GI50 [5] | GI50 [6] | GI50 [7] | GI50 [8] | GI50 [9] | GI50 [10] | GI50 [11] | GI50 [12] | GI50 [13] | GI50 [14] | GI50 [15] | GI50 [16] | GI50 [17] | GI50 [18] | GI50 [19] | GI50 [20]
C=CS(=O)(=O)CCN1CC1 | > 10 µM (inactive) | > 10 µM (inactive) | > 10 µM (inactive) | > 10 µM (inactive) | > 10 µM (inactive) | > 10 µM (inactive) | > 10 µM (inactive) | > 10 µM (inactive) | > 10 µM (inactive) | > 10 µM (inactive) | > 10 µM (inactive) | > 10 µM (inactive) | > 10 µM (inactive) | > 10 µM (inactive) | > 10 µM (inactive) | > 10 µM (inactive) | > 10 µM (inactive) |  |  | 
C=C1c2nc3ccccc3n2C=C(c2ccccc2)N1c1ccc([N+](=O)[O-])cc1 | 3.04 µM (inactive) | 15.3 µM (inactive) | 6.92 µM (inactive) | 7.01 µM (inactive) | 7.35 µM (inactive) | 6.25 µM (inactive) | 9.46 µM (inactive) | 3.01 µM (inactive) | 7.18 µM (inactive) | 3.61 µM (inactive) | 9.2 µM (inactive) | 2.39 µM (inactive) | 7.6 µM (inactive) | 3.49 µM (inactive) | 0.855 µM (active) | 29.2 µM (inactive) | 7.26 µM (inactive) |  |  | 
Cc1ccc(S(=O)(=O)N2CCCSCC2)cc1 | 72.4 µM (inactive) | > 100 µM (inactive) | > 100 µM (inactive) |  | > 100 µM (inactive) | > 100 µM (inactive) | > 100 µM (inactive) |  | > 100 µM (inactive) | > 100 µM (inactive) |  | > 100 µM (inactive) | > 100 µM (inactive) | > 100 µM (inactive) |  | > 100 µM (inactive) |  |  |  | 
C/C(=N/NS(=O)(=O)c1ccc([N+](=O)[O-])cc1)c1cccc[n+]1[O-] |  |  |  | > 100 µM (inactive) | > 100 µM (inactive) |  | > 100 µM (inactive) |  |  |  | > 100 µM (inactive) |  |  | > 100 µM (inactive) | > 100 µM (inactive) | > 100 µM (inactive) | > 100 µM (inactive) | > 100 µM (inactive) | > 100 µM (inactive) | > 100 µM (inactive)
COc1cccc(/C=C/C(=O)N2CC(CCl)c3c2cc(N)c2ccccc32)c1 (centres undefined) | 0.00968 µM (active) | 0.00284 µM (active) | 0.00018 µM (active) | < 0.01 µM (active) | < 0.01 µM (active) | 0.0034 µM (active) | < 0.01 µM (active) | < 0.01 µM (active) | 0.0731 µM (active) | 0.000238 µM (active) | 0.000566 µM (active) | 0.0039 µM (active) | 0.0143 µM (active) | 0.00242 µM (active) | 0.00106 µM (active) | 0.0194 µM (active) | 0.00298 µM (active) |  |  | 
COc1cccc(C2C(C(=O)O)=C(CO)Oc3cc4c(cc32)OCO4)c1 (centres undefined) |  |  |  | > 100 µM (inactive) | > 100 µM (inactive) |  | > 100 µM (inactive) | > 100 µM (inactive) |  |  | > 100 µM (inactive) |  |  |  |  | > 100 µM (inactive) | > 100 µM (inactive) |  | > 100 µM (inactive) | > 100 µM (inactive)
CCOC(=O)C(=O)Nc1cccc(C)c1C |  |  |  | > 100 µM (inactive) | > 100 µM (inactive) |  | > 100 µM (inactive) | > 100 µM (inactive) |  |  | > 100 µM (inactive) |  |  | > 100 µM (inactive) |  | > 100 µM (inactive) | > 100 µM (inactive) | > 100 µM (inactive) | > 100 µM (inactive) | > 100 µM (inactive)
C=COCCCOc1ccccc1 |  |  |  | > 100 µM (inactive) | > 100 µM (inactive) |  | > 100 µM (inactive) | > 100 µM (inactive) |  |  | > 100 µM (inactive) |  |  | > 100 µM (inactive) |  | > 100 µM (inactive) |  | > 100 µM (inactive) |  | > 100 µM (inactive)
Cc1nc2[nH]ncn2c(=O)c1CCO | > 10 µM (inactive) | > 10 µM (inactive) | > 10 µM (inactive) | > 10 µM (inactive) | > 10 µM (inactive) | > 10 µM (inactive) | > 10 µM (inactive) | > 10 µM (inactive) | > 10 µM (inactive) | > 10 µM (inactive) | > 10 µM (inactive) | > 10 µM (inactive) | > 10 µM (inactive) | > 10 µM (inactive) |  | > 10 µM (inactive) | > 10 µM (inactive) |  |  | 
Cc1c(N(Cc2ccccc2)Cc2ccccc2)nc(S(C)(=O)=O)nc1S(C)(=O)=O |  |  |  | 2.09 µM (inactive) | 2.08 µM (inactive) |  | 2.2 µM (inactive) | 5.36 µM (inactive) |  |  | 8.07 µM (inactive) |  |  | 1.79 µM (inactive) |  | 2.11 µM (inactive) | 1.71 µM (inactive) | 2.2 µM (inactive) | 2.2 µM (inactive) | 1.74 µM (inactive)
O=C(Nc1cccc(C(=O)NCCCO)c1)/C(=C/c1ccccc1)NC(=O)c1ccccc1 | > 100 µM (inactive) | > 100 µM (inactive) | > 100 µM (inactive) | > 100 µM (inactive) | > 100 µM (inactive) | > 100 µM (inactive) | > 100 µM (inactive) | > 100 µM (inactive) | > 100 µM (inactive) | > 100 µM (inactive) | > 100 µM (inactive) | > 100 µM (inactive) | > 100 µM (inactive) | > 100 µM (inactive) | > 100 µM (inactive) | 84.1 µM (inactive) | > 100 µM (inactive) |  |  | 
CCCCNC1=C2C(=O)NN=C2CO1 |  |  |  | > 100 µM (inactive) | > 100 µM (inactive) |  | > 100 µM (inactive) |  |  |  | > 100 µM (inactive) |  |  | > 100 µM (inactive) |  | > 100 µM (inactive) | > 100 µM (inactive) | > 100 µM (inactive) | > 100 µM (inactive) | > 100 µM (inactive)
CCP(=O)(CC)C(Cl)(Cl)C(O)C(C)(C)C (centres undefined) | > 100 µM (inactive) | > 100 µM (inactive) | > 100 µM (inactive) | > 10 µM (inactive) | > 100 µM (inactive) | > 100 µM (inactive) | > 100 µM (inactive) |  | > 100 µM (inactive) | > 100 µM (inactive) | > 100 µM (inactive) | > 100 µM (inactive) | > 100 µM (inactive) | > 100 µM (inactive) |  | > 100 µM (inactive) |  |  |  | 
CC(C)(C)C(=O)OCC1OC(N=[N+]=[N-])C(OC(=O)C(C)(C)C)C(OC(=O)C(C)(C)C)C1OC(=O)C(C)(C)C (centres undefined) |  |  |  | 58.6 µM (inactive) | > 100 µM (inactive) |  | > 100 µM (inactive) | > 100 µM (inactive) |  |  | > 100 µM (inactive) |  |  | > 100 µM (inactive) |  | > 100 µM (inactive) | > 100 µM (inactive) | > 100 µM (inactive) | > 100 µM (inactive) | > 100 µM (inactive)
CC(C)(Br)C1(O)CCCN1C(=O)c1ccccc1 (centres undefined) |  |  |  | > 100 µM (inactive) | 33 µM (inactive) |  | > 100 µM (inactive) | > 100 µM (inactive) |  |  |  |  |  | > 100 µM (inactive) |  | > 100 µM (inactive) | > 100 µM (inactive) | > 100 µM (inactive) | > 100 µM (inactive) | > 100 µM (inactive)
Brc1cccc(Nc2ncnc3sc4c(c23)CCC(Nc2cccc(Br)c2)C4)c1 (centres undefined) | > 100 µM (inactive) | > 100 µM (inactive) | > 100 µM (inactive) |  | > 100 µM (inactive) | 6.55 µM (inactive) | > 100 µM (inactive) | > 100 µM (inactive) | > 100 µM (inactive) | 83.8 µM (inactive) | 79.8 µM (inactive) | > 100 µM (inactive) | > 100 µM (inactive) | > 100 µM (inactive) | > 100 µM (inactive) | > 100 µM (inactive) | > 100 µM (inactive) |  |  | 
Nc1nnc(CCC(=O)Nc2cc(Cl)ccc2Cl)n1N |  |  |  | > 100 µM (inactive) | > 100 µM (inactive) |  | > 100 µM (inactive) | > 100 µM (inactive) |  |  | > 100 µM (inactive) |  |  | > 100 µM (inactive) |  | > 100 µM (inactive) | > 100 µM (inactive) | > 100 µM (inactive) | > 100 µM (inactive) | > 100 µM (inactive)
CCCCCCCCCCCC1=NCCN1 | 83.9 µM (inactive) | 19.4 µM (inactive) | 74.1 µM (inactive) |  | 39.6 µM (inactive) | 73.3 µM (inactive) | 22.9 µM (inactive) |  | > 100 µM (inactive) | 38.9 µM (inactive) |  | 23.8 µM (inactive) | > 100 µM (inactive) | 19.5 µM (inactive) |  | 17.9 µM (inactive) |  |  |  | 
CC(=O)/N=C1/N(/C=C2\C(=O)Oc3ccccc3C2=O)C(=O)/C(=C/c2ccc(NC(C)=O)cc2)N1C | 44.4 µM (inactive) | > 100 µM (inactive) | > 100 µM (inactive) | > 100 µM (inactive) | > 100 µM (inactive) | > 100 µM (inactive) | > 100 µM (inactive) | > 100 µM (inactive) | > 100 µM (inactive) | > 100 µM (inactive) | > 100 µM (inactive) | > 100 µM (inactive) | > 100 µM (inactive) | > 100 µM (inactive) | > 100 µM (inactive) | > 100 µM (inactive) | > 100 µM (inactive) |  |  | 
CN(C)c1ccc(/C=C/C(=O)N[C@@H]2C(=O)N3[C@@H]2SC(C)(C)[C@@H]3C(=O)O)cc1 | > 100 µM (inactive) | > 100 µM (inactive) | > 100 µM (inactive) | > 100 µM (inactive) | > 100 µM (inactive) | > 100 µM (inactive) | > 100 µM (inactive) |  | > 100 µM (inactive) | > 100 µM (inactive) | > 100 µM (inactive) | > 100 µM (inactive) | > 100 µM (inactive) | > 100 µM (inactive) | > 100 µM (inactive) | > 100 µM (inactive) | > 100 µM (inactive) |  |  | 
